# Assay results reported in article PMC9555642 (PLoS ONE, 2022).
# What was measured:
# HDAC7 = molecular target: T1, HDAC7 (Homo sapiens, UniProt Q8WUI4); assay: HDAC enzymatic activity (Eurofins); format: biochemical; conditions: Class IIA; ACY-1083 mean of two separate measurements, Ricolinostat and Tubastatin A one measurement
# T1 construct: purchased Eurofins Pharma Discovery Services 2610
# T1 sequence (Q8WUI4 1-952): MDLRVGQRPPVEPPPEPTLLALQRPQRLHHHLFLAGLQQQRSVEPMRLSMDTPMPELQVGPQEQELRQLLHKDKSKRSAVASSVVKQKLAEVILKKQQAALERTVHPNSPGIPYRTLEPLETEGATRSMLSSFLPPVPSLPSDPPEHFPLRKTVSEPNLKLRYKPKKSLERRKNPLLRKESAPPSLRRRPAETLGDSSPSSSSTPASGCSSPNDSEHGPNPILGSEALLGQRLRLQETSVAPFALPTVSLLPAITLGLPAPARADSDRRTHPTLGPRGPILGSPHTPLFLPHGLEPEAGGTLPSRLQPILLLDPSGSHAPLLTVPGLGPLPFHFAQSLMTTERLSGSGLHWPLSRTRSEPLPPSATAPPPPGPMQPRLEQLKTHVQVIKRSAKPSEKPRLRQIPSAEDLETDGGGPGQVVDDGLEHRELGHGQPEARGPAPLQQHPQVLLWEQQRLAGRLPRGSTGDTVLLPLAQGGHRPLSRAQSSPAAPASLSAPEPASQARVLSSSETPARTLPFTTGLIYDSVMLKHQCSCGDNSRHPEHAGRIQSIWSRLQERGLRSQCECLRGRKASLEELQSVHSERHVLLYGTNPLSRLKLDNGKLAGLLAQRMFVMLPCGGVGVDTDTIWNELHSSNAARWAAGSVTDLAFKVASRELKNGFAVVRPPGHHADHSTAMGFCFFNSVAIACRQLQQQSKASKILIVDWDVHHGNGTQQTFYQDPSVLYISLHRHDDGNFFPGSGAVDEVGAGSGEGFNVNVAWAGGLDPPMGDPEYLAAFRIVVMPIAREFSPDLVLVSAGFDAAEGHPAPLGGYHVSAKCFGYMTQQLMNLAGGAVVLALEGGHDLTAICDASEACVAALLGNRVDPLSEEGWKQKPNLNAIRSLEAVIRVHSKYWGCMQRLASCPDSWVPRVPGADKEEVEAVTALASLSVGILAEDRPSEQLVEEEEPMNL
# COPD HBEC ALI cultures = assay: Cigarette smoke extract (CSE) challenge in ALI, FITC-dextran permeability; format: cell-based, human; conditions: 10 μM pre-treatment 3 days, CSE 1, 3 and 6% for 48 hours, two COPD donors
# Description: The paracellular permeability was determined by using fluorescein isothiocyanate labeled 4kD-dextran (Sigma-Aldrich, St. Louis, USA). 18 hours after addition of 0.2 mg FITC-dextran in 200 μL medium to the apical side of the ALI cultures, the fluorescence in the basolateral medium was measured using PHERAstar FSX (excitation 485 nm and emission 520 nm) (BMG LABTECH, Ortenberg, Germany). The time point was chosen for optimal window in the assays as well as practical reasons and has been kept consistent in between different stimulations throughout this work. Data was plotted as fold-change of 0.1% DMSO control.
# Cigarette smoke extract (CSE) experiments were performed using CSE containing media. In short, smoke from five filterless Kentucky research cigarettes, 3R4F (Kentucky Tobacco Research and Development Center, Lexington, USA), was bubbled through 25 ml of PBS at a speed of five minutes per cigarette. The CSE was filtered through a 0.2 μm sterile filter and stored at -80°C until addition to the basolateral side of HBEC ALI cultures from two COPD donors. […] Permeability was measured after 48 hours.
# Kv4.3 = molecular target: T2, Kv4.3 (Homo sapiens, UniProt Q9UK17); assay: Cardiovascular ion channel panel, SyncroPatch 384PE patch clamp; format: cell-based; conditions: CHO K1 cell line, room temperature, 6 point cumulative assay
# T2 construct: expressed in transfected cells; host or cells: Chinese hamster ovary K1 cell line
# T2 sequence (Q9UK17 1-655): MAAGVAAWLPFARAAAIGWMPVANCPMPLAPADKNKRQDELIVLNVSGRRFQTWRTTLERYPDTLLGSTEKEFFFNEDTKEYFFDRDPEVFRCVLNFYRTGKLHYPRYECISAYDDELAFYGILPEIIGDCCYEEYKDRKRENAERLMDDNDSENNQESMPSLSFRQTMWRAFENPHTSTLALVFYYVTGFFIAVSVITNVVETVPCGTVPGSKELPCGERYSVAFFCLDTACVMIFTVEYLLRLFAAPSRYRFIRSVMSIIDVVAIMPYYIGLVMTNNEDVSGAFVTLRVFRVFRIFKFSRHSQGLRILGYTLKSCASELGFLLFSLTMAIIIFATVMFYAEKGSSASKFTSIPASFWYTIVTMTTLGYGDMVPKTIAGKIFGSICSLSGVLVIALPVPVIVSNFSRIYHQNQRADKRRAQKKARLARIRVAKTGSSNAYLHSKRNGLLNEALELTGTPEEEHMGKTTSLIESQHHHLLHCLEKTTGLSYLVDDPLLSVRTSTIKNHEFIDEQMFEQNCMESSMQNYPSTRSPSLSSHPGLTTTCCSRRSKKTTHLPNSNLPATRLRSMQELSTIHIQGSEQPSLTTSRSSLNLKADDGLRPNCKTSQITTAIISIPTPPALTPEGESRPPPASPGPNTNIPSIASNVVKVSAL
# [1] = test system: healthy HBEC at ALI cultures; assay: Cell velocity (Particle Image Velocimetry); format: cell-based, human; conditions: TNF-challenged healthy HBEC, brought down to unchallenged levels, 0.0411
# Source text: For cilia beating frequency (CBF) and cell velocity measurements, donor cells of primary healthy HBECs were amplified on rat tail collagen I coated flasks and seeded on 12-mm-diameter Transwell inserts.
# Cell migration was quantified by performing Particle Image Velocimetry (PIVlab) on Matlab using multi-pass cross-correlation analysis with decreasing interrogation window size on image pairs to obtain the spatial velocity field as described previously.
substance,measurement,setting,value
ACY-1083,IC50,HDAC7,6.51 µM
same,paracellular permeability after CSE challenge,COPD HBEC ALI cultures,reduction in permeability at all concentrations
same,activity on Kv4.3,Kv4.3,> 30 µM
same,cellular velocity,[1],counteract this increase
